Species on record: Rattus norvegicus
Test: DrugMatrix - Regimen: Daily Repeat
Assay type: toxicity, organism-based, Sprague-Dawley
Set-up: regimen Daily Repeat, gender Male, age 6-8 weeks
Conditions: in vivo, po, route oral GAVAGE, vehicle 100 % SALINE; for ABSOLUTE BASOPHIL / ABSOLUTE EOSINOPHIL / ABSOLUTE LYMPHOCYTE / ABSOLUTE MONOCYTE / ABSOLUTE SEGMENTED NEUTROPHIL / BASOPHIL / EOSINOPHIL / ERYTHROCYTE COUNT / HEMATOCRIT / HEMOGLOBIN / LEUKOCYTE COUNT / LYMPHOCYTE / MEAN CORPUSCULAR HEMOGLOBIN / MEAN CORPUSCULAR HEMOGLOBIN CONCENTRATION / MEAN CORPUSCULAR VOLUME / MONOCYTE / NEUTROPHIL / NUCLEATED RED BLOOD CELLS / PLATELET COUNT: tissue Blood; for ALANINE AMINOTRANSFERASE / ALBUMIN / ALKALINE PHOSPHATASE / ASPARTATE AMINOTRANSFERASE / BLOOD UREA NITROGEN / CARBON DIOXIDE / CHLORIDE / CHOLESTEROL / CREATINE PHOSPHOKINASE / CREATININE / GLUCOSE / LACTATE DEHYDROGENASE / LIPASE / PHOSPHORUS / POTASSIUM / SODIUM / TOTAL BILIRUBIN / TOTAL PROTEIN / URIC ACID: tissue Plasma
[1] = 59 mg/kg, 120 h, dose level Low, time 5 day
[2] = 400 mg/kg, 72 h, dose level High, time 3 day
[3] = 400 mg/kg, 120 h, dose level High, time 5 day

## NC(=O)NO [HYDROXYUREA]
[1]
  ABSOLUTE BASOPHIL: 0 CELLS/uL
  ABSOLUTE EOSINOPHIL: 40 CELLS/uL
  ABSOLUTE LYMPHOCYTE: 7014.67 CELLS/uL
  ABSOLUTE MONOCYTE: 87.67 CELLS/uL
  ABSOLUTE SEGMENTED NEUTROPHIL: 557.67 CELLS/uL
  BASOPHIL: 0%
  EOSINOPHIL: 0.67%
  ERYTHROCYTE COUNT: 5.35 x10E6/uL
  HEMATOCRIT: 34.53%
  HEMOGLOBIN: 13.4 G/DL
  LEUKOCYTE COUNT: 7.7 x10E3/uL
  LYMPHOCYTE: 90.67%
  MEAN CORPUSCULAR HEMOGLOBIN: 25.1 pg
  MEAN CORPUSCULAR HEMOGLOBIN CONCENTRATION: 38.83 G/DL
  MEAN CORPUSCULAR VOLUME: 64.63 fL
  MONOCYTE: 1%
  NEUTROPHIL: 7.67%
  NUCLEATED RED BLOOD CELLS: 0 /100WBC
  PLATELET COUNT: 1286 x10E3/uL
  ALANINE AMINOTRANSFERASE: 54 u/L
  ALBUMIN: 4.1 G/DL
  ALKALINE PHOSPHATASE: 381.33 u/L
  ASPARTATE AMINOTRANSFERASE: 80.33 u/L
  BLOOD UREA NITROGEN: 12.33 mg/dL
  CARBON DIOXIDE: 29.67 mmol/L
  CHLORIDE: 98 MEQ/L
  CHOLESTEROL: 64 mg/dL
  CREATINE PHOSPHOKINASE: 314.67 u/L
  CREATININE: 0.22 mg/dL
  GLUCOSE: 169.33 mg/dL
  LACTATE DEHYDROGENASE: 90.33 u/L
  LIPASE: 10.67 u/L
  PHOSPHORUS: 10.9 mg/dL
  POTASSIUM: 5.6 MEQ/L
  SODIUM: 143.13 MEQ/L
  TOTAL BILIRUBIN: 0.17 mg/dL
  TOTAL PROTEIN: 6.1 G/DL
  URIC ACID: 0.8 mg/dL
[2]
  ABSOLUTE BASOPHIL: 0 CELLS/uL
  ABSOLUTE EOSINOPHIL: 0 CELLS/uL
  ABSOLUTE LYMPHOCYTE: 4351 CELLS/uL
  ABSOLUTE MONOCYTE: 16 CELLS/uL
  ABSOLUTE SEGMENTED NEUTROPHIL: 133 CELLS/uL
  BASOPHIL: 0%
  EOSINOPHIL: 0%
  ERYTHROCYTE COUNT: 4.56 x10E6/uL
  HEMATOCRIT: 29.63%
  HEMOGLOBIN: 11.37 G/DL
  LEUKOCYTE COUNT: 4.5 x10E3/uL
  LYMPHOCYTE: 96.67%
  MEAN CORPUSCULAR HEMOGLOBIN: 24.93 pg
  MEAN CORPUSCULAR HEMOGLOBIN CONCENTRATION: 38.43 G/DL
  MEAN CORPUSCULAR VOLUME: 64.87 fL
  MONOCYTE: 0.33%
  NEUTROPHIL: 3%
  NUCLEATED RED BLOOD CELLS: 0 /100WBC
  PLATELET COUNT: 1033 x10E3/uL
  ALANINE AMINOTRANSFERASE: 39.67 u/L
  ALBUMIN: 3.97 G/DL
  ALKALINE PHOSPHATASE: 323.33 u/L
  ASPARTATE AMINOTRANSFERASE: 76 u/L
  BLOOD UREA NITROGEN: 10 mg/dL
  CARBON DIOXIDE: 30.33 mmol/L
  CHLORIDE: 100.67 MEQ/L
  CHOLESTEROL: 77.33 mg/dL
  CREATINE PHOSPHOKINASE: 221.33 u/L
  CREATININE: 0.2 mg/dL
  GLUCOSE: 154.67 mg/dL
  LACTATE DEHYDROGENASE: 79 u/L
  LIPASE: 9 u/L
  PHOSPHORUS: 10.53 mg/dL
  POTASSIUM: 5.6 MEQ/L
  SODIUM: 144.93 MEQ/L
  TOTAL BILIRUBIN: 0.1 mg/dL
  TOTAL PROTEIN: 5.93 G/DL
  URIC ACID: 0.53 mg/dL
[3]
  ABSOLUTE BASOPHIL: 0 CELLS/uL
  ABSOLUTE EOSINOPHIL: 0 CELLS/uL
  ABSOLUTE LYMPHOCYTE: 4141 CELLS/uL
  ABSOLUTE MONOCYTE: 8.33 CELLS/uL
  ABSOLUTE SEGMENTED NEUTROPHIL: 117.33 CELLS/uL
  BASOPHIL: 0%
  EOSINOPHIL: 0%
  ERYTHROCYTE COUNT: 4.75 x10E6/uL
  HEMATOCRIT: 30.23%
  HEMOGLOBIN: 11.9 G/DL
  LEUKOCYTE COUNT: 4.27 x10E3/uL
  LYMPHOCYTE: 97%
  MEAN CORPUSCULAR HEMOGLOBIN: 25.03 pg
  MEAN CORPUSCULAR HEMOGLOBIN CONCENTRATION: 39.37 G/DL
  MEAN CORPUSCULAR VOLUME: 63.63 fL
  MONOCYTE: 0.33%
  NEUTROPHIL: 2.67%
  NUCLEATED RED BLOOD CELLS: 0 /100WBC
  PLATELET COUNT: 955 x10E3/uL
  ALANINE AMINOTRANSFERASE: 47 u/L
  ALBUMIN: 3.97 G/DL
  ALKALINE PHOSPHATASE: 216.67 u/L
  ASPARTATE AMINOTRANSFERASE: 84.67 u/L
  BLOOD UREA NITROGEN: 11.33 mg/dL
  CARBON DIOXIDE: 28.67 mmol/L
  CHLORIDE: 100.67 MEQ/L
  CHOLESTEROL: 82 mg/dL
  CREATINE PHOSPHOKINASE: 362.67 u/L
  CREATININE: 0.1 mg/dL
  GLUCOSE: 158.67 mg/dL
  LACTATE DEHYDROGENASE: 74 u/L
  LIPASE: 8.67 u/L
  PHOSPHORUS: 10.1 mg/dL
  POTASSIUM: 5.3 MEQ/L
  SODIUM: 144.07 MEQ/L
  TOTAL BILIRUBIN: 0.1 mg/dL
  TOTAL PROTEIN: 5.87 G/DL
  URIC ACID: 0.47 mg/dL

Source: ChEMBL document CHEMBL3885881, “DrugMatrix”
